Reference: US12409172B2, “Dosage regimen” (UNION therapeutics A/S, priority 2023, dated 2025)

What was measured:
[1] = system: pruritus (itch) associated with atopic dermatitis; assay: Phase 2b study in atopic dermatitis (Examples 8, 9): ≥4-point improvement in peak pruritus NRS (PPNRS); assay type: in vivo, human
Method: The severity of itch (pruritus) due to AD will be assessed using a horizontal 11-point NRS. Patients will be asked to assess their “worst itching due to AD over the past 24 hours” on an NRS anchored by the terms “no itching” (0) and “worst possible itching” (10). The item will be completed at each visit via an application on an electronic device in the clinic or the patient's own electronic device from baseline through Week 20.
The binary secondary efficacy endpoint, 4-point improvement in the peak pruritis numerical rating scale (“responders”), was analysed using the Mantel-Haenszel (MH) test and Fisher's exact tests, comparing the proportions of PPNRS responders in each active treatment group with placebo (intent-to-treat (ITT) population).
The ITT population included all randomized subjects who received at least 1 dose of orismilast. The treatment group assignment was designated according to initial randomization. The ITT population served as the basis for the analysis of efficacy.
PPNRS assesses the severity of itch (pruritus) due to atopic dermatitis using a horizontal 11-point NRS. […]
In FIG. 34, “Observed” or “Obs” refers to all subjects in the ITT Population with a recorded PPNRS score, i.e. if the PPNRS score is missing the value was not imputed. […]

[2] = Chinese healthy volunteer study CIB1353A101: PK; conditions: human, in vivo, oral; CIBI3S3A101 (D1 = 10 mg); N 18; read-out: AUClast, NCA GM (CV %)
healthy volunteers = assay: Clinical trial LP0058-1442 (phase 1, NCT03812198): safety and tolerability in healthy volunteers; assay type: in vivo
Method: The safety, tolerability, and PK of orismilast MR and IR formulations were tested in a phase 1 clinical trial (NCT03812198) on healthy volunteers. Participants were randomised (3:1) to received orismilast MR or placebo (n=12). Orismilast MR was administered twice-daily for a total of 17 days. Orismilast MR was initiated at 10 mg twice-daily on days 1-2, increased to 20 mg twice-daily on days 3-4, to 30 mg twice-daily on days 5-6, to 40 mg twice-daily on days 7-8, to 50 mg twice-daily on days 9-10, and finally to 60 mg twice-daily on days 11-17.
Twenty-seven (27) healthy volunteers received a single administration of 30 mg orismilast, and 9 subjects received multiple administrations over a period of 17 days with an up-titration up to a maximum of 60 mg BID. Part 1 of this study was to evaluate the key PK parameters of the new modified-release formulation compared to the reference capsule formulation with immediate release.
In that study, patients received orismilast 30 mg BID immediate release or placebo for 16 weeks.

[3] = system: patients with moderate to severe psoriasis vulgaris; assay: Phase 2a study LP0058-1072 (NCT02888236): orismilast 30 mg BID immediate release vs placebo, 16 weeks; assay type: in vivo
Method: In a phase 2a prospective, randomized, double-blind, placebo-controlled clinical trial (NCT02888236), patients with moderate-to-severe psoriasis were randomized to receive 30 mg twice per day orally in the form of an immediate release (IR) formulation or placebo over 16 weeks.
The modified-release formulation was studied in a clinical trial (LP0058-1442) and administered in a total of 36 healthy volunteers: 18 in part 1, 9 in part 2, and 9 in part 3. Twenty-seven (27) healthy volunteers received a single administration of 30 mg orismilast, and 9 subjects received multiple administrations over a period of 17 days with an up-titration up to a maximum of 60 mg BID. Part 1 of this study was to evaluate the key PK parameters of the new modified-release formulation compared to the reference capsule formulation with immediate release. Orismilast was rapidly absorbed from both formulations with median tmax values of 3.00 hours post-dose for the immediate-release capsule and 2.52 hours post-dose for the modified-release tablet. The individual tmax ranges were approximately 1 to 6 hours post-dose for the immediate-release capsule and 1 to 4 hours post-dose for the modified-release tablet. […]

[4] = system: human peripheral blood mononuclear cells PBMC; conditions: in vitro; cited from earlier work

With O=C(Cc1c(Cl)c[n+]([O-])cc1Cl)c1ccc(OC(F)F)c2c1OC1(CCS(=O)(=O)CC1)O2 [orismilast, 2-(3,5-dichloro-1-oxidopyridin-1-ium-4-yl)-1-[7-(difluoromethoxy)-1′,1′-dioxospiro[1,3-benzodioxole-2,4′-thiane]-4-yl]ethanone] the “≥4-point reduction in itch NRS / PPNRS at week 2 compared to placebo” value ([1]; all active arms (20, 30, 40 mg BID), MI p<0.05) was “significant”, the “≥4 point reduction in PPNRS at week 16 compared to placebo” value ([1]; all active arms, subjects having severe itch (PPNRS>7) at baseline, Observed p<0.05 or p<0.1) was “statistically significant improvement” and the AUC(0-t) [2] was 167 ng·h/mL. For the same compound, the “number of adverse events of headache at the 40-mg dose level” value (healthy volunteers; 40-mg dose level) was 6, the “number of participants with nausea at a dose equal or lower to 40 mg” value (healthy volunteers; dose equal or lower to 40 mg) was 2 and the maximal tolerated dose (healthy volunteers; modified-release tablet, healthy volunteers) was 40 mg BID. For the same compound, the “number of adverse events of headache” value (healthy volunteers; subjects receiving orismilast, up-titration up to 60 mg BID) was 14, the “number of subjects with nausea” value (healthy volunteers; up-titration up to 60 mg BID, 9 subjects) was 5 and the “efficacy in psoriasis on each predefined endpoint” value [3] was “confirmed”. For the same compound, the “patients withdrawn from the trial because of tolerability issues” value [3] was “half” and the “secretion of Th1 (TNFα and IFNγ), Th17 (IL-22 and IL-23) and Th2 (IL-4, IL-5, and IL-13) related cytokines in PBMC” value [4] was “inhibited”.
